In the supplement of paper PMC11451515:

Assays:
Conditions in all cases: 48 h
SEM cells [1] = test: cell viability relative to DMSO control; higher = less cytotoxic
Method in brief: (§1)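 NOMO1, SEM and P12-Ichikawa leukemia cells spent at least four passages adapting to each medium before use. They were seeded at 500 cells/well (NOMO1, SEM) or 1000 cells/well (P12-Ichikawa) in 5 μl in 1536-well plates and pin-dosed with library compounds in DMSO at 11 threefold steps from 47 μM down to 0.79 nM. After 48 h at 37°C, CellTiter-Glo One luminescence was read. Viability is reported as a percentage of the DMSO wells on each plate, with cell-free wells as background.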

NOMO1 [2] = test: AUC of viability dose-response curve (% viability x log10 dose units); higher = less sensitive
Method in brief: (§2)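 Library compounds in DMSO were applied for 48 h at 37°C at 11 threefold doses (47 μM to 0.79 nM) to medium-adapted leukemia cells in 1536-well plates holding 500 or 1000 cells/well. Luminescence from CellTiter-Glo One was normalised plate by plate against DMSO and cell-free wells. Area under the curve came from trapezoidal integration of a log-logistic fit, after scaling curves that rose above full viability and discarding those that failed quality control. The fit had four parameters and used log10 doses.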

P12-Ichikawa [3] = test: as above
Method in brief: as §2

SEM cells [4] = test: as above
Method in brief: as §2

NOMO1 [5] = test: cell viability relative to DMSO control; higher = less cytotoxic
Method in brief: as §1

P12-Ichikawa [6] = test: as above
Method in brief: as §1

[7] = HPLM + 10% dialyzed FBS, 0.000781 µM
[8] = HPLM + 10% dialyzed FBS, 0.00234 µM
[9] = HPLM + 10% dialyzed FBS, 0.00702 µM
[10] = HPLM + 10% dialyzed FBS, 0.0211 µM
[11] = HPLM + 10% dialyzed FBS, 0.0632 µM
[12] = HPLM + 10% dialyzed FBS, 0.19 µM
[13] = HPLM + 10% dialyzed FBS, 0.569 µM
[14] = HPLM + 10% dialyzed FBS, 1.71 µM
[15] = HPLM + 10% dialyzed FBS, 5.12 µM
[16] = HPLM + 10% dialyzed FBS, 15.4 µM
[17] = HPLM + 10% dialyzed FBS, 46.1 µM
[18] = RPMI 5 mM glucose + 10% dialyzed FBS
[19] = RPMI 5 mM glucose + 10% FBS, 0.000781 µM
[20] = RPMI 5 mM glucose + 10% FBS, 0.00234 µM
[21] = RPMI 5 mM glucose + 10% FBS, 0.00702 µM
[22] = RPMI 5 mM glucose + 10% FBS, 0.0211 µM
[23] = RPMI 5 mM glucose + 10% FBS, 0.0632 µM
[24] = RPMI 5 mM glucose + 10% FBS, 0.19 µM
[25] = RPMI 5 mM glucose + 10% FBS, 0.569 µM
[26] = RPMI 5 mM glucose + 10% FBS, 1.71 µM
[27] = RPMI 5 mM glucose + 10% FBS, 5.12 µM
[28] = RPMI 5 mM glucose + 10% FBS, 15.4 µM
[29] = RPMI 5 mM glucose + 10% FBS, 46.1 µM
[30] = RPMI 5 mM glucose + 10% dialyzed FBS, 0.000781 µM
[31] = RPMI 5 mM glucose + 10% dialyzed FBS, 0.00234 µM
[32] = RPMI 5 mM glucose + 10% dialyzed FBS, 0.00702 µM
[33] = RPMI 5 mM glucose + 10% dialyzed FBS, 0.0211 µM
[34] = RPMI 5 mM glucose + 10% dialyzed FBS, 0.0632 µM
[35] = RPMI 5 mM glucose + 10% dialyzed FBS, 0.19 µM
[36] = RPMI 5 mM glucose + 10% dialyzed FBS, 0.569 µM
[37] = RPMI 5 mM glucose + 10% dialyzed FBS, 1.71 µM
[38] = RPMI 5 mM glucose + 10% dialyzed FBS, 5.12 µM
[39] = RPMI 5 mM glucose + 10% dialyzed FBS, 15.4 µM
[40] = RPMI 5 mM glucose + 10% dialyzed FBS, 46.1 µM

C=CC[N+]1([C@H]2C[C@H]3[C@@H]4CC[C@H]5C[C@H](O)[C@@H](N6CCOCC6)C[C@]5(C)[C@H]4CC[C@]3(C)[C@H]2OC(C)=O)CCCC1
cell viability (SEM cells [1]; [7]): 130% | cell viability (SEM cells [1]; [8]): 116% | cell viability (SEM cells [1]; [9]): 119% | cell viability (SEM cells [1]; [10]): 125% | cell viability (SEM cells [1]; [11]): 114% | cell viability (SEM cells [1]; [12]): 131% | cell viability (SEM cells [1]; [13]): 124% | cell viability (SEM cells [1]; [14]): 127% | cell viability (SEM cells [1]; [15]): 119% | cell viability (SEM cells [1]; [16]): 113% | cell viability (SEM cells [1]; [17]): 113% | AUC of viability dose-response curve (NOMO1 [2]; HPLM + 10% dialyzed FBS): 442 | AUC of viability dose-response curve (NOMO1 [2]; RPMI 5 mM glucose + 10% FBS): 454 | AUC of viability dose-response curve (NOMO1 [2]; [18]): 455 | AUC of viability dose-response curve (P12-Ichikawa [3]; HPLM + 10% dialyzed FBS): 457 | AUC of viability dose-response curve (P12-Ichikawa [3]; RPMI 5 mM glucose + 10% FBS): 455 | AUC of viability dose-response curve (P12-Ichikawa [3]; [18]): 462 | AUC of viability dose-response curve (SEM cells [4]; HPLM + 10% dialyzed FBS): 462 | AUC of viability dose-response curve (SEM cells [4]; RPMI 5 mM glucose + 10% FBS): 464 | AUC of viability dose-response curve (SEM cells [4]; [18]): 465

CC(=O)O[C@@]12CO[C@@H]1C[C@H](O)[C@]3(C)[C@@H]2[C@H](OC(=O)C4=CC=CC=C4)[C@]5(O)C[C@H](O)/C(=C(/[C@@H](O)C3=O)C5(C)C)C
cell viability (NOMO1 [5]; [7]): 109% | cell viability (NOMO1 [5]; [8]): 133% | cell viability (NOMO1 [5]; [9]): 123% | cell viability (NOMO1 [5]; [10]): 122% | cell viability (NOMO1 [5]; [11]): 130% | cell viability (NOMO1 [5]; [12]): 131% | cell viability (NOMO1 [5]; [13]): 114% | cell viability (NOMO1 [5]; [14]): 121% | cell viability (NOMO1 [5]; [15]): 117% | cell viability (NOMO1 [5]; [16]): 36.1% | cell viability (NOMO1 [5]; [17]): 29.1% | cell viability (NOMO1 [5]; [19]): 98.1% | cell viability (NOMO1 [5]; [20]): 112% | cell viability (NOMO1 [5]; [21]): 111% | cell viability (NOMO1 [5]; [22]): 116% | cell viability (NOMO1 [5]; [23]): 118% | cell viability (NOMO1 [5]; [24]): 108% | cell viability (NOMO1 [5]; [25]): 105% | cell viability (NOMO1 [5]; [26]): 113% | cell viability (NOMO1 [5]; [27]): 109% | cell viability (NOMO1 [5]; [28]): 51.8% | cell viability (NOMO1 [5]; [29]): 13.3% | cell viability (NOMO1 [5]; [30]): 89.8% | cell viability (NOMO1 [5]; [31]): 92.8% | cell viability (NOMO1 [5]; [32]): 106% | cell viability (NOMO1 [5]; [33]): 121% | cell viability (NOMO1 [5]; [34]): 113% | cell viability (NOMO1 [5]; [35]): 114% | cell viability (NOMO1 [5]; [36]): 106% | cell viability (NOMO1 [5]; [37]): 111% | cell viability (NOMO1 [5]; [38]): 115% | cell viability (NOMO1 [5]; [39]): 45.1% | cell viability (NOMO1 [5]; [40]): 19.3% | cell viability (P12-Ichikawa [6]; [7]): 97.5% | cell viability (P12-Ichikawa [6]; [8]): 106% | cell viability (P12-Ichikawa [6]; [9]): 72.1% | cell viability (P12-Ichikawa [6]; [10]): 115% | cell viability (P12-Ichikawa [6]; [11]): 114% | cell viability (P12-Ichikawa [6]; [12]): 117% | cell viability (P12-Ichikawa [6]; [13]): 120% | cell viability (P12-Ichikawa [6]; [14]): 120% | cell viability (P12-Ichikawa [6]; [15]): 98.1% | cell viability (P12-Ichikawa [6]; [16]): 36.6% | cell viability (P12-Ichikawa [6]; [17]): 13.7% | cell viability (P12-Ichikawa [6]; [19]): 100% | cell viability (P12-Ichikawa [6]; [20]): 110% | cell viability (P12-Ichikawa [6]; [21]): 69.7% | cell viability (P12-Ichikawa [6]; [22]): 113% | cell viability (P12-Ichikawa [6]; [23]): 116% | cell viability (P12-Ichikawa [6]; [24]): 119% | cell viability (P12-Ichikawa [6]; [25]): 122% | cell viability (P12-Ichikawa [6]; [26]): 113% | cell viability (P12-Ichikawa [6]; [27]): 88.6% | cell viability (P12-Ichikawa [6]; [28]): 28.7% | cell viability (P12-Ichikawa [6]; [29]): 7.33% | cell viability (P12-Ichikawa [6]; [30]): 100% | cell viability (P12-Ichikawa [6]; [31]): 114% | cell viability (P12-Ichikawa [6]; [32]): 77.5% | cell viability (P12-Ichikawa [6]; [33]): 117% | cell viability (P12-Ichikawa [6]; [34]): 113% | cell viability (P12-Ichikawa [6]; [35]): 112% | cell viability (P12-Ichikawa [6]; [36]): 121% | cell viability (P12-Ichikawa [6]; [37]): 119% | cell viability (P12-Ichikawa [6]; [38]): 104% | cell viability (P12-Ichikawa [6]; [39]): 43.9% | cell viability (P12-Ichikawa [6]; [40]): 18.5% | cell viability (SEM cells [1]; [7]): 84.3% | cell viability (SEM cells [1]; [8]): 108% | cell viability (SEM cells [1]; [9]): 43.5% | cell viability (SEM cells [1]; [10]): 110% | cell viability (SEM cells [1]; [11]): 106% | cell viability (SEM cells [1]; [12]): 111% | cell viability (SEM cells [1]; [13]): 116% | cell viability (SEM cells [1]; [14]): 107% | cell viability (SEM cells [1]; [15]): 90.2% | cell viability (SEM cells [1]; [16]): 35.8% | cell viability (SEM cells [1]; [17]): 16.3% | cell viability (SEM cells [1]; [19]): 70.4% | cell viability (SEM cells [1]; [20]): 71.5% | cell viability (SEM cells [1]; [21]): 19.1% | cell viability (SEM cells [1]; [22]): 71% | cell viability (SEM cells [1]; [23]): 64.7% | cell viability (SEM cells [1]; [24]): 72.3% | cell viability (SEM cells [1]; [25]): 70.1% | cell viability (SEM cells [1]; [26]): 65.2% | cell viability (SEM cells [1]; [27]): 54.2% | cell viability (SEM cells [1]; [28]): 18.1% | cell viability (SEM cells [1]; [29]): 8.94% | cell viability (SEM cells [1]; [30]): 90.8% | cell viability (SEM cells [1]; [31]): 99.6% | cell viability (SEM cells [1]; [32]): 43.2% | cell viability (SEM cells [1]; [33]): 116% | cell viability (SEM cells [1]; [34]): 105% | cell viability (SEM cells [1]; [35]): 110% | cell viability (SEM cells [1]; [36]): 121% | cell viability (SEM cells [1]; [37]): 112% | cell viability (SEM cells [1]; [38]): 75.1% | cell viability (SEM cells [1]; [39]): 29.9% | cell viability (SEM cells [1]; [40]): 13% | AUC of viability dose-response curve (NOMO1 [2]; HPLM + 10% dialyzed FBS): 423 | AUC of viability dose-response curve (NOMO1 [2]; RPMI 5 mM glucose + 10% FBS): 430 | AUC of viability dose-response curve (NOMO1 [2]; [18]): 430 | AUC of viability dose-response curve (P12-Ichikawa [3]; HPLM + 10% dialyzed FBS): 421 | AUC of viability dose-response curve (P12-Ichikawa [3]; RPMI 5 mM glucose + 10% FBS): 411 | AUC of viability dose-response curve (P12-Ichikawa [3]; [18]): 426
